Test results reported in ChEMBL document CHEMBL3745607, “Optimization of allosteric MEK inhibitors. Part 2: Taming the sulfamide group balances compound distribution properties” (Bioorg Med Chem Lett, 2016).

What was measured:
cells [1] = details: Homo sapiens, HCT-116
Description: Antiproliferative activity against human HCT116 cells harboring K-Ras G13D mutation

[2] = Ratio of AUC in brain to plasma in mouse at 5 mg/kg, iv measured for 0 to 3 hrs; type: ADME, organism-based; details: brain and plasma, read-out: BPR
Carbonic anhydrase 1 = Carbonic anhydrase 1 (Homo sapiens, UniProt P00915); test: Inhibition of human carbonic anhydrase 1
A549 [3] = test: Antitumor activity against human A549 cells xenografted in mouse assessed as reduction in tumor area at 1 mg/kg, po qd relative to control; type: functional
A-375 = test: Antiproliferative activity against human A375 cells harboring BRAF(V600E) mutation after 72 hrs by cell titer glow cell titer glow FCTGI assay; details: A-375, 72 h
A549 [4] = test: cells; details: Homo sapiens
Description: Antiproliferative activity against human A549 cells harboring K-Ras mutation

cells [5] = details: Homo sapiens, COLO 205
Description: Antiproliferative activity against human COLO205 cells harboring BRAF mutation

[6] = Volume of distribution at steady state in rat at 0.5 mg/kg, iv or 1 mg/kg, po; type: ADME, organism-based; details: in vivo, read-out: Vdss
[7] = Half life in rat at 0.5 mg/kg, iv or 1 mg/kg, po; type: ADME, organism-based; details: in vivo
[8] = Blood clearance in rat at 0.5 mg/kg, iv or 1 mg/kg, po; type: ADME, organism-based
A549 [9] = test: Antitumor activity against human A549 cells xenografted in mouse assessed as reduction in tumor area at 2 mg/kg, po qd relative to control; type: functional
HepG2 = test: cells; details: Homo sapiens
Description: Antiproliferative activity against human HepG2 cells harboring N-Ras mutation

[10] = Oral bioavailability in rat 1 mg/kg; type: ADME, organism-based; details: in vivo
MCF7 = test: cells; details: Homo sapiens
Description: Antiproliferative activity against human MCF7 cells

Carbonic anhydrase 2 = Carbonic anhydrase 2 (Homo sapiens, UniProt P00918); test: Inhibition of human carbonic anhydrase 2
[11] = Oral bioavailability in rat 5 mg/kg; type: ADME, organism-based; details: in vivo
[12] = Half life in rat at 0.5 mg/kg, iv or 5 mg/kg, po; type: ADME, organism-based; details: in vivo

Carbonic anhydrase 1, sequence (P00915 whole entry): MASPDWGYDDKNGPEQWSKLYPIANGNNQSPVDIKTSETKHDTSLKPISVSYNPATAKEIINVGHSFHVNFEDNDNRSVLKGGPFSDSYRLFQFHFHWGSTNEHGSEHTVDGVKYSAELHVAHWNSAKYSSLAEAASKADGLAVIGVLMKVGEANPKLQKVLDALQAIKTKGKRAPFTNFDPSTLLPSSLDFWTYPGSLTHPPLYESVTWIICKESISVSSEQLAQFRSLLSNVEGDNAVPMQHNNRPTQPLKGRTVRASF

Row | SMILES | IC50 (cells [1]) [nM] | IC50 (A-375) [nM] | also measured
1 | NC(=O)c1c(Nc2ccc(I)cc2F)cc(F)cc1Oc1cccc(NS(N)(=O)=O)c1 | 180 |  | Kp [2]: < 0.02; IC50 (Carbonic anhydrase 1): 4800 nM; T/C (A549 [3]): 0.15
2 | NC(=O)c1c(Nc2ccc(I)cc2F)cc(F)cc1Oc1cccc(CS(N)(=O)=O)c1 | 3500 |  | 
3 | NC(=O)c1c(Nc2ccc(I)cc2F)cc(F)cc1Oc1ccc(Cl)c(NS(N)(=O)=O)c1 |  | 483 | 
4 | NC(=O)c1c(Oc2cccc(CS(N)(=O)=O)c2)cc(F)c(F)c1Nc1ccc(I)cc1F | 303 | 11 | 
5 | NC(=O)c1c(Oc2ccc(F)c(NS(N)(=O)=O)c2F)cc(F)c(F)c1Nc1ccc(I)cc1F | 2950 | 32 | 
6 | NC(=O)c1c(Nc2ccc(I)cc2F)cc(F)cc1Oc1ccccc1NS(N)(=O)=O | 2400 | 65 | 
7 | NC(=O)c1c(Nc2ccc(I)cc2F)cc(F)cc1Oc1cccc(F)c1NS(N)(=O)=O |  | 138 | 
8 | NC(=O)c1c(Nc2ccc(I)cc2F)cc(F)cc1Oc1ccc2c(c1)N(S(N)(=O)=O)CCO2 |  | 339 | 
9 | CCOc1ccc(Oc2cc(F)cc(Nc3ccc(I)cc3F)c2C(N)=O)cc1NS(N)(=O)=O |  | 977 | 
10 | CCS(=O)(=O)Nc1cccc(Oc2c(F)c(F)cc(Nc3ccc(I)cc3F)c2C(N)=O)c1 | 81 | 4 | 
11 | NC(=O)c1c(Nc2ccc(I)cc2F)cc(F)cc1Oc1ccc(F)c(NS(N)(=O)=O)c1F |  | 374 | 
12 | NC(=O)c1c(Nc2ccc(I)cc2F)cc(F)cc1Oc1cccc(NS(N)(=O)=O)c1Br | 152 | 8 | 
13 | NC(=O)c1c(Oc2ccc(F)c(NS(N)(=O)=O)c2)cc(F)c(F)c1Nc1ccc(I)cc1F | 277 | 13 | IC50 (A549 [4]): 314 nM; IC50 (cells [5]): 42 nM; Vd [6]: 0.5 L/kg; Kp [2]: < 0.02; half-life [7]: 26 h; clearance [8]: 0.333 mL/min/kg; T/C (A549 [9]): 0.21; IC50 (HepG2): 2 nM; bioavailability [10]: 84%; IC50 (MCF7): > 10000 nM
14 | NCCS(=O)(=O)Nc1cccc(Oc2cc(F)cc(Nc3ccc(I)cc3F)c2C(N)=O)c1 | 1800 | 88 | IC50 (Carbonic anhydrase 2): > 10000 nM
15 | NC(=O)c1c(Oc2cccc(CNS(N)(=O)=O)c2)cc(F)c(F)c1Nc1ccc(I)cc1F | 124 | 4 | IC50 (A549 [4]): 185 nM; IC50 (cells [5]): 9 nM; Vd [6]: 1.9 L/kg; Kp [2]: < 0.02; half-life [7]: 32 h; clearance [8]: 1.17 mL/min/kg; IC50 (HepG2): 5 nM; bioavailability [10]: 78%; T/C (A549 [3]): 0.13; IC50 (MCF7): > 10000 nM
16 | COc1cc(NS(N)(=O)=O)cc(Oc2cc(F)cc(Nc3ccc(I)cc3F)c2C(N)=O)c1 |  | 922 | 

Row | SMILES | IC50 (cells [1]) [nM] | IC50 (A-375) [nM] | also measured
17 | NC(=O)c1c(Oc2cccc(NS(N)(=O)=O)c2)cc(F)c(F)c1Nc1ccc(I)cc1F | 50 | 2 | 
18 | NC(=O)c1c(Nc2ccc(I)cc2F)cc(F)cc1Oc1cccc(CNS(N)(=O)=O)c1 | 757 | 35 | 
19 | Cc1c(NS(N)(=O)=O)cccc1Oc1cc(F)c(F)c(Nc2ccc(I)cc2F)c1C(N)=O | 2 | 0.2 | 
20 | CCS(=O)(=O)Nc1cccc(Oc2cc(F)c(F)c(Nc3ccc(I)cc3F)c2C(N)=O)c1 | 65 | 2.4 | 
21 | CCNS(=O)(=O)Nc1cccc(Oc2cc(F)cc(Nc3ccc(I)cc3F)c2C(N)=O)c1 | 287 | < 30 | 
22 | Cc1c(NS(N)(=O)=O)cccc1Oc1cc(F)cc(Nc2ccc(I)cc2F)c1C(N)=O | 9 | 2 | 
23 | CN(C)S(=O)(=O)Nc1cccc(Oc2cc(F)c(F)c(Nc3ccc(I)cc3F)c2C(N)=O)c1 | 42 | 6 | 
24 | NC(=O)c1c(Nc2ccc(I)cc2F)cc(F)cc1Oc1cccc(NS(N)(=O)=O)c1Cl | 87 | 6 | 
25 | NC(=O)c1c(Nc2ccc(I)cc2F)cc(F)cc1Oc1ccc(F)c(NS(N)(=O)=O)c1 | 2510 | 90 | 
26 | Cc1ccc(NS(N)(=O)=O)cc1Oc1cc(F)cc(Nc2ccc(I)cc2F)c1C(N)=O |  | 570 | 
27 | CC(NS(N)(=O)=O)c1cccc(Oc2cc(F)cc(Nc3ccc(I)cc3F)c2C(N)=O)c1 (configuration not stated) | 731 | 24 | 
28 | Cc1ccc(Oc2cc(F)cc(Nc3ccc(I)cc3F)c2C(N)=O)cc1NS(N)(=O)=O |  | 180 | 
29 | COc1ccc(Oc2cc(F)cc(Nc3ccc(I)cc3F)c2C(N)=O)cc1NS(N)(=O)=O |  | 731 | 
30 | Cc1cccc(Oc2cc(F)cc(Nc3ccc(I)cc3F)c2C(N)=O)c1NS(N)(=O)=O |  | 218 | 
31 | Cn1cnc2c(F)c(Nc3ccc(Br)cc3Cl)c(C(=O)NOCCO)cc21 [SELUMETINIB] | 3000 |  | IC50 (cells [5]): 69 nM; bioavailability [11]: 24%; half-life [12]: 4.1 h; IC50 (MCF7): > 10000 nM
